Assay results as given in patent publication US20230365592A1 (Agios Pharmaceuticals, Inc., priority 2022, published 2023).

Target: T1, human PAH with the R408W mutation (Homo sapiens, UniProt P00439, R408W)
T1 construct: expressed in transfected cells
T1 sequence (P00439 1-452 R408W): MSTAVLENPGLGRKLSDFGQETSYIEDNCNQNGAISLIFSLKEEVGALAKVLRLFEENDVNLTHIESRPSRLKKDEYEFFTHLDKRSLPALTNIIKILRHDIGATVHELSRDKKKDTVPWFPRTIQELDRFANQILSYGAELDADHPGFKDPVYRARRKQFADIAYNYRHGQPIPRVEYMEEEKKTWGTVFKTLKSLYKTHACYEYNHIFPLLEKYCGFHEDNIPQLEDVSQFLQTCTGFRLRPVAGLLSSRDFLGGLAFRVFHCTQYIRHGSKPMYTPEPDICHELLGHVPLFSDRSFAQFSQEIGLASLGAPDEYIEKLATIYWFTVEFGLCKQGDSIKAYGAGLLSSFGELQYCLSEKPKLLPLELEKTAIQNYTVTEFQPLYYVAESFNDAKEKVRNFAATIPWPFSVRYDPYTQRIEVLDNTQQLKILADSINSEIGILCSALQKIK
Assay: Cell Based Phenylalanine Flux Assay;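 further: after compound treatment, cells received sepiapterin plus isotope-labelled Phenylalanine for 4 hours, then labelled Tyrosine in the medium was quantified, 10-point 2-fold dilution series run in duplicate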
Details: A375 cells expressing human PAH R408W; 24 hrs compound incubation; 13C-Tyrosine by LC-MS; average where tested multiple times; read-out: AC50

AC50 | Compound
> 5000 nM | COc1cccn2nc([C@H]3c4nc[nH]c4CCN3c3ccc(C(F)(F)F)cn3)cc12 [Example 2246, (R)-4-(4-methoxypyrazolo[1,5-a]pyridin-2-yl)-5-(5-(trifluoromethyl)pyridin-2-yl)-4,5,6,7-tetrahydro-1H-imidazo[4,5-c]pyridine]
< 500 nM | COc1cccn2nc([C@@H]3c4nc[nH]c4CCN3c3ccc(C(F)(F)F)cn3)cc12 [Example 2247, (S)-4-(4-methoxypyrazolo[1,5-a]pyridin-2-yl)-5-(5-(trifluoromethyl)pyridin-2-yl)-4,5,6,7-tetrahydro-1H-imidazo[4,5-c]pyridine]
< 500 nM | Cc1nnc(N2CCc3[nH]cnc3[C@H]2c2cc3c(OC(F)(F)F)cccn3n2)o1 [Example 2249, (S)-2-methyl-5-(4-(4-(trifluoromethoxy)pyrazolo[1,5-a]pyridin-2-yl)-1,4,6,7-tetrahydro-5H-imidazo[4,5-c]pyridin-5-yl)-1,3,4-oxadiazole]
< 500 nM | FC(F)(F)Oc1cccn2nc([C@@H]3c4nc[nH]c4CCN3c3nnc(C(F)(F)F)o3)cc12 [Example 2253, (S)-2-(4-(4-(trifluoromethoxy)pyrazolo[1,5-a]pyridin-2-yl)-1,4,6,7-tetrahydro-5H-imidazo[4,5-c]pyridin-5-yl)-5-(trifluoromethyl)-1,3,4-oxadiazole]
< 500 nM | FC(F)Oc1cccn2nc([C@@H]3c4nc[nH]c4CCN3c3ncccn3)cc12 [Example 2254, (S)-4-(4-(difluoromethoxy)pyrazolo[1,5-a]pyridin-2-yl)-5-(pyrimidin-2-yl)-4,5,6,7-tetrahydro-1H-imidazo[4,5-c]pyridine]
1000 to 5000 nM | FC(F)Oc1cccn2nc([C@H]3c4nc[nH]c4CCN3c3ncccn3)cc12 [Example 2255, (R)-4-(4-(difluoromethoxy)pyrazolo[1,5-a]pyridin-2-yl)-5-(pyrimidin-2-yl)-4,5,6,7-tetrahydro-1H-imidazo[4,5-c]pyridine]
< 500 nM | FC(F)Oc1cccn2nc([C@@H]3c4nc[nH]c4CCN3c3ncc(C(F)(F)F)cn3)cc12 [Example 2256, (S)-4-(4-(difluoromethoxy)pyrazolo[1,5-a]pyridin-2-yl)-5-(5-(trifluoromethyl)pyrimidin-2-yl)-4,5,6,7-tetrahydro-1H-imidazo[4,5-c]pyridine]
> 5000 nM | FC(F)Oc1cccn2nc([C@H]3c4nc[nH]c4CCN3c3ncc(C(F)(F)F)cn3)cc12 [Example 2257, (R)-4-(4-(difluoromethoxy)pyrazolo[1,5-a]pyridin-2-yl)-5-(5-(trifluoromethyl)pyrimidin-2-yl)-4,5,6,7-tetrahydro-1H-imidazo[4,5-c]pyridine]
500 to 1000 nM | CC1(c2nnc(N3CCc4[nH]cnc4[C@H]3c3cc4c(Cl)cccn4n3)o2)CC1 [Example 2259, (S)-2-(4-(4-chloropyrazolo[1,5-a]pyridin-2-yl)-1,4,6,7-tetrahydro-5H-imidazo[4,5-c]pyridin-5-yl)-5-(1-methylcyclopropyl)-1,3,4-oxadiazole]
> 5000 nM | CC(C)c1cccn2nc([C@H]3c4nc[nH]c4CCN3c3nnc(-c4cccnc4)o3)cc12 [Example 2260, (R)-2-(4-(4-isopropylpyrazolo[1,5-a]pyridin-2-yl)-1,4,6,7-tetrahydro-5H-imidazo[4,5-c]pyridin-5-yl)-5-(pyridin-3-yl)-1,3,4-oxadiazole]
> 5000 nM | Cc1cccnc1-c1nnc(N2CCc3[nH]cnc3[C@@H]2c2cc3ccccn3n2)o1 [Example 2266, (R)-2-(3-methylpyridin-2-yl)-5-(4-(pyrazolo[1,5-a]pyridin-2-yl)-1,4,6,7-tetrahydro-5H-imidazo[4,5-c]pyridin-5-yl)-1,3,4-oxadiazole]
< 500 nM | Cc1cccnc1-c1nnc(N2CCc3[nH]cnc3[C@H]2c2cc3ccccn3n2)o1 [Example 2267, (S)-2-(3-methylpyridin-2-yl)-5-(4-(pyrazolo[1,5-a]pyridin-2-yl)-1,4,6,7-tetrahydro-5H-imidazo[4,5-c]pyridin-5-yl)-1,3,4-oxadiazole]
> 5000 nM | Cc1cccnc1-c1nnc(N2CCc3[nH]cnc3[C@@H]2c2cc3c(C)cccn3n2)o1 [Example 2268, (R)-2-(4-(4-methylpyrazolo[1,5-a]pyridin-2-yl)-1,4,6,7-tetrahydro-5H-imidazo[4,5-c]pyridin-5-yl)-5-(3-methylpyridin-2-yl)-1,3,4-oxadiazole]
< 500 nM | Cc1cccnc1-c1nnc(N2CCc3[nH]cnc3[C@H]2c2cc3c(C)cccn3n2)o1 [Example 2269, (S)-2-(4-(4-methylpyrazolo[1,5-a]pyridin-2-yl)-1,4,6,7-tetrahydro-5H-imidazo[4,5-c]pyridin-5-yl)-5-(3-methylpyridin-2-yl)-1,3,4-oxadiazole]
< 500 nM | FC(F)(F)Oc1cccn2nc([C@@H]3c4nc[nH]c4CCN3c3ncccn3)cc12 [Example 2270, (S)-5-(pyrimidin-2-yl)-4-(4-(trifluoromethoxy)pyrazolo[1,5-a]pyridin-2-yl)-4,5,6,7-tetrahydro-1H-imidazo[4,5-c]pyridine]
> 5000 nM | FC(F)(F)Oc1cccn2nc([C@H]3c4nc[nH]c4CCN3c3ncccn3)cc12 [Example 2271, (R)-5-(pyrimidin-2-yl)-4-(4-(trifluoromethoxy)pyrazolo[1,5-a]pyridin-2-yl)-4,5,6,7-tetrahydro-1H-imidazo[4,5-c]pyridine]
> 5000 nM | FC(F)Oc1cccn2nc([C@H]3c4nc[nH]c4CCN3c3ccc(C(F)(F)F)cn3)cc12 [Example 2273, (R)-4-(4-(difluoromethoxy)pyrazolo[1,5-a]pyridin-2-yl)-5-(5-(trifluoromethyl)pyridin-2-yl)-4,5,6,7-tetrahydro-1H-imidazo[4,5-c]pyridine]
500 to 1000 nM | Cc1cccc2cc([C@@H]3c4nc[nH]c4CCN3c3nnc(-c4cccnc4F)o3)nn12 [Example 2274, (S)-2-(2-fluoropyridin-3-yl)-5-(4-(7-methylpyrazolo[1,5-a]pyridin-2-yl)-1,4,6,7-tetrahydro-5H-imidazo[4,5-c]pyridin-5-yl)-1,3,4-oxadiazole]
> 5000 nM | Cc1cccc2cc([C@H]3c4nc[nH]c4CCN3c3nnc(-c4cccnc4F)o3)nn12 [Example 2275, (R)-2-(2-fluoropyridin-3-yl)-5-(4-(7-methylpyrazolo[1,5-a]pyridin-2-yl)-1,4,6,7-tetrahydro-5H-imidazo[4,5-c]pyridin-5-yl)-1,3,4-oxadiazole]
< 500 nM | Cc1cccnc1-c1nnc(N2CCc3[nH]cnc3[C@H]2c2cc3c(C(F)(F)F)cccn3n2)o1 [Example 2276, (S)-2-(3-methylpyridin-2-yl)-5-(4-(4-(trifluoromethyl)pyrazolo[1,5-a]pyridin-2-yl)-1,4,6,7-tetrahydro-5H-imidazo[4,5-c]pyridin-5-yl)-1,3,4-oxadiazole]
> 5000 nM | Cc1cccnc1-c1nnc(N2CCc3[nH]cnc3[C@@H]2c2cc3c(C(F)(F)F)cccn3n2)o1 [Example 2277, (R)-2-(3-methylpyridin-2-yl)-5-(4-(4-(trifluoromethyl)pyrazolo[1,5-a]pyridin-2-yl)-1,4,6,7-tetrahydro-5H-imidazo[4,5-c]pyridin-5-yl)-1,3,4-oxadiazole]
> 5000 nM | Cc1cccnc1-c1nnc(N2CCc3[nH]cnc3[C@@H]2c2cc3c(C(F)F)cccn3n2)o1 [Example 2278, (R)-2-(4-(4-(difluoromethyl)pyrazolo[1,5-a]pyridin-2-yl)-1,4,6,7-tetrahydro-5H-imidazo[4,5-c]pyridin-5-yl)-5-(3-methylpyridin-2-yl)-1,3,4-oxadiazole]
